In assay [1] the test system is Thoracic aorta. The assay can be described thus: Contractile activity in Sprague-Dawley rat thoracic aorta assessed as contraction in aortic ring preincubated ofr 30 mins followed by URP or human U2-stimulation. The format is functional, tissue-based.
The target of another assay is T1, Urotensin-2 receptor (Homo sapiens, UniProt Q9UKP6).
T1 sequence (Q9UKP6 whole entry): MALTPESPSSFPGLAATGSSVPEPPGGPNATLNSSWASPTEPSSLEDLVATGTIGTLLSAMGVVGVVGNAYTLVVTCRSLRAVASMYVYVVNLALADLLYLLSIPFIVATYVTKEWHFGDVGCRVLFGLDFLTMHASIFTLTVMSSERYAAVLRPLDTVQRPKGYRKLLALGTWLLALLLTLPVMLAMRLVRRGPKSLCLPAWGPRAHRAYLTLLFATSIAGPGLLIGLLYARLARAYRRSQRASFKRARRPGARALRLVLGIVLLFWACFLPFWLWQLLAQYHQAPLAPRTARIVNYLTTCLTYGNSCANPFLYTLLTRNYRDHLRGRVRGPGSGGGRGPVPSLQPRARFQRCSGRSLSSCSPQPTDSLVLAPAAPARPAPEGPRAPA
As to the kind of experiment: Antagonist activity at human UT receptor expressed in HEK293 cells using Na [125I] incubated for 2 hrs by gamma counting method. The format is cell-based.

The test system of assay [2] is Thoracic aorta. As to the kind of experiment: Contractile activity in Sprague-Dawley rat thoracic aorta assessed as ratio of KCl-induced contraction to human U2-induced contraction in aortic ring at 10^-11 to 3 x 10^-6 M relative to control. The format is functional.
Assay [3] has as its system Thoracic aorta. As to the kind of experiment: Contractile activity in Sprague-Dawley rat thoracic aorta assessed as ratio of KCl-induced contraction to human U2-induced contraction in aortic ring at 3 x 10^-6 M (reference value: 101 +/- 4 %). The format is functional.
The test system of assay [4] is Thoracic aorta. The assay can be described thus: Contractile activity in Sprague-Dawley rat thoracic aorta assessed as contraction in aortic ring preincubated ofr 30 mins followed by human U2-stimulation (reference value: 8.59 +/- 0.12). The format is functional, tissue-based.
Assay [5] has as its system Thoracic aorta. As to the kind of experiment: Contractile activity in Sprague-Dawley rat thoracic aorta assessed as contraction in aortic ring preincubated ofr 30 mins followed by URP-stimulation (reference value: 8.16 +/- 0.08). The format is functional, tissue-based.
For assay [6], the system named is Thoracic aorta. The assay can be described thus: Contractile activity in Sprague-Dawley rat thoracic aorta assessed as ratio of KCl-induced contraction to human U2-induced contraction in aortic ring at 10^-6 M (reference value: 101 +/- 4 %). The format is functional.
Assay [7] relates to Thoracic aorta. The assay can be described thus: Contractile activity in Sprague-Dawley rat thoracic aorta assessed as ratio of KCl-induced contraction to URP-induced contraction in aortic ring at 10^-6 M (reference value: 107 +/- 3 %). The format is functional.
Assay [8] deals with Thoracic aorta. The assay can be described thus: Contractile activity in Sprague-Dawley rat thoracic aorta assessed as ratio of KCl-induced contraction to URP-induced contraction in aortic ring at 3 x 10^-6 M (reference value: 107 +/- 3 %). The format is functional.
Assay [9] relates to Thoracic aorta. The assay can be described thus: Contractile activity in Sprague-Dawley rat thoracic aorta assessed as contraction in aortic ring at 10^-5 M relative to control. The format is functional.
Assay [10] deals with Thoracic aorta. The assay can be described thus: Contractile activity in Sprague-Dawley rat thoracic aorta assessed as ratio of KCl-induced contraction to URP-induced contraction in aortic ring at 10^-5 M (reference value: 107 +/- 3 %). The format is functional.
The test system of assay [11] is Thoracic aorta. As to the kind of experiment: Contractile activity in Sprague-Dawley rat thoracic aorta assessed as ratio of KCl-induced contraction to human U2-induced contraction in aortic ring at 10^-5 M (reference value: 101 +/- 4 %). The format is functional.

A value given as a limit tells only on which side of the number the result lay.

Take `CC(C)[C@H](NC(=O)[C@@H]1CSSC[C@H](NC(=O)[C@H](C)N)C(=O)N[C@@H](Cc2ccccc2)C(=O)N[C@@H](Cc2c[nH]c3ccccc23)C(=O)N[C@@H](CCCCN)C(=O)N[C@@H](Cc2ccc(O)cc2)C(=O)N1)C(=O)O`: in the assay on Thoracic aorta [1], the EC50 is 6.92 nM. Moreover, on Urotensin-2 receptor, 5.13 nM corresponded to half-maximal inhibition (IC50). The Emax in the assay with Thoracic aorta [2] came out at 107%.
As for `CC(C)[C@H](NC(=O)[C@@H]1CSSC[C@H](NC(=O)[C@H](C)N)C(=O)N[C@@H](Cc2ccccc2)C(=O)N[C@@H](Cc2ccc(-c3ccsc3)cc2)C(=O)N[C@@H](CCCCN)C(=O)N[C@@H](Cc2ccc(O)cc2)C(=O)N1)C(=O)O`, the maximal response (Emax) at 3 µM with Thoracic aorta [3] came to 20%. The EC50 is more than 3160 nM in the assay with Thoracic aorta [1], 7.59 nM in the assay on Thoracic aorta [4] and 12.9 nM with Thoracic aorta [5]. Further, the values for the Emax at 1 µM in the assay on Thoracic aorta [6] and in the assay with Thoracic aorta [7] were 105% and 115%, respectively. At Urotensin-2 receptor, this molecule showed an IC50 of 36.3 nM.
For the molecule `CC(C)[C@H](NC(=O)[C@@H]1CSSC[C@H](NC(=O)[C@H](C)N)C(=O)N[C@@H](Cc2ccccc2)C(=O)N[C@@H](Cc2ccc(-c3ccncc3)cc2)C(=O)N[C@@H](CCCCN)C(=O)N[C@@H](Cc2ccc(O)cc2)C(=O)N1)C(=O)O`, the Emax at 3 µM in the assay with Thoracic aorta [3] is 5 to 25%; in the assay on Thoracic aorta [8] it was 94%. Besides, the figures for the EC50 in the assay on Thoracic aorta [1], in the assay with Thoracic aorta [4] and with Thoracic aorta [5] were more than 3160 nM, 1.41 to 4.47 nM and 2.95 to 6.46 nM, respectively. The Emax at 1 µM with Thoracic aorta [6] was determined as 70%; in the assay with Thoracic aorta [7], 96%. The midpoint of inhibition at Urotensin-2 receptor, the IC50, lay at 155 nM. The Emax at 10 µM amounted to 9% in the assay on Thoracic aorta [9] and 92% in the assay with Thoracic aorta [10].
In the case of `CC(C)[C@H](NC(=O)[C@@H]1CSSC[C@H](NC(=O)[C@H](C)N)C(=O)N[C@@H](Cc2ccccc2)C(=O)N[C@@H](Cc2ccc(OCc3ccccc3)cc2)C(=O)N[C@@H](CCCCN)C(=O)N[C@@H](Cc2ccc(O)cc2)C(=O)N1)C(=O)O`, the maximum response (Emax) at 3 µM in the assay on Thoracic aorta [3] was 80%. The concentration giving a half-maximal response (EC50) with Thoracic aorta [1] is more than 3160 nM.
For the molecule `CC(C)[C@H](NC(=O)[C@@H]1CSSC[C@H](NC(=O)[C@H](C)N)C(=O)N[C@@H](Cc2ccccc2)C(=O)N[C@@H](Cc2ccc(-c3cccnc3)cc2)C(=O)N[C@@H](CCCCN)C(=O)N[C@@H](Cc2ccc(O)cc2)C(=O)N1)C(=O)O`, the maximal effect (Emax) at 3 µM with Thoracic aorta [3] stood at 24%. In addition, the EC50 in the assay on Thoracic aorta [1] is more than 3160 nM; in the assay on Thoracic aorta [4] it was 2.09 nM; in the assay with Thoracic aorta [5], 8.51 nM. For the same molecule, the Emax at 1 µM with Thoracic aorta [6] was 94%; in the assay on Thoracic aorta [7], 102%. The same molecule gave an IC50 against Urotensin-2 receptor of 102 nM.
In the case of `CC(C)[C@H](NC(=O)[C@@H]1CSSC[C@H](NC(=O)[C@H](C)N)C(=O)N[C@@H](Cc2ccccc2)C(=O)N[C@H](Cc2ccc(-c3ccccc3)cc2)C(=O)N[C@@H](CCCCN)C(=O)N[C@@H](Cc2ccc(O)cc2)C(=O)N1)C(=O)O`, in the assay with Thoracic aorta [1], the concentration for a half-maximal effect (EC50) is 47.9 nM. The IC50 against Urotensin-2 receptor is 3.16 nM. For the same molecule, in the assay with Thoracic aorta [2], the Emax came out at 97%.
On to `CC(C)[C@H](NC(=O)[C@@H]1CSSC[C@H](NC(=O)[C@H](C)N)C(=O)N[C@@H](Cc2ccccc2)C(=O)N[C@@H](Cc2ccc(-c3ccc(-c4ccccc4)cc3)cc2)C(=O)N[C@@H](CCCCN)C(=O)N[C@@H](Cc2ccc(O)cc2)C(=O)N1)C(=O)O`, for which the Emax at 3 µM came to 65% in the assay with Thoracic aorta [3] and 95% with Thoracic aorta [8]. The EC50 with Thoracic aorta [1] is 7.76 nM; in the assay with Thoracic aorta [4] it was 2.24 to 3.39 nM; in the assay with Thoracic aorta [5] it was 6.61 to 12 nM. Besides, the maximal effect (Emax) at 1 µM with Thoracic aorta [6] came out at 79%; in the assay on Thoracic aorta [7], 99%. Also, the half-inhibitory concentration (IC50) against Urotensin-2 receptor was 135 nM. The maximal response (Emax) at 10 µM with Thoracic aorta [11] came to 55%; in the assay on Thoracic aorta [10], 92%. The maximum response (Emax) with Thoracic aorta [2] stood at 9%.
As for `CC(C)[C@H](NC(=O)[C@@H]1CSSC[C@H](NC(=O)[C@H](C)N)C(=O)N[C@@H](Cc2ccccc2)C(=O)N[C@H](Cc2ccc(C#Cc3ccccc3)cc2)C(=O)N[C@@H](CCCCN)C(=O)N[C@@H](Cc2ccc(O)cc2)C(=O)N1)C(=O)O`, the half-maximal effective concentration (EC50) with Thoracic aorta [1] is 28.2 nM. At Urotensin-2 receptor, half-maximal inhibition (IC50) required 12 nM. In the assay with Thoracic aorta [2], the Emax is 99%.
As for `CC(C)[C@H](NC(=O)[C@@H]1CSSC[C@H](NC(=O)[C@H](C)N)C(=O)NC(Cc2ccccc2)C(=O)N[C@H](Cc2ccc(I)cc2)C(=O)N[C@@H](CCCCN)C(=O)N[C@@H](Cc2ccc(O)cc2)C(=O)N1)C(=O)O` (stereo in doubt), the 50% effective concentration (EC50) in the assay with Thoracic aorta [1] is 28.8 nM. Moreover, the IC50 against Urotensin-2 receptor was 2.45 nM. Besides, the Emax in the assay on Thoracic aorta [2] was determined as 114%.

As a reminder, the EC50 is the midpoint of the concentration-response curve. For orientation: IC50 means the concentration at which inhibition is half-maximal. Low readings indicate greater potency, high ones weaker potency. A word on the Emax: it is the greatest response seen or fitted, relative to the assay's reference.

For the origin of these results see ChEMBL document CHEMBL4619826, “Insights into the Molecular Determinants Involved in Urocontrin and Urocontrin A Action” (ACS Med Chem Lett, 2020).
